Assay results as given in patent US12398158B2, “Fluorescent GTP analogues and use” (CISBIO BIOASSAYS, priority 2019, dated 2025).

What was measured:
Gαi protein [1] = test: TR-FRET (HTRF) binding test of GTP analog-donor / anti-Gαi antibody DSV36S-d2, HEK293 Delta Opioid membranes; conditions: HEK293 membranes expressing Delta Opioid GPCR and Gαi, 1 μg per well; analog 1 nM; absence vs presence of GTPγS 100 μM
Excerpt: (§1) • membrane preparations of cells expressing GPCRs and the G-alpha-i protein (Gαi) were purchased from Perkin Elmer or Euroscreen. The table below lists the cell backgrounds and references of the different samples used:
(§2) • the DSV36 antibody was generated by Cisbio Bioassays and is available rom Cisbio Bioassays on request (under the reference DSV36S). The antibody was labeled with the fluorescent probe d2 (red acceptor) compatible for TR-FRET detection. The DSV36S antibody binds at the switch II of the Gαi protein. • the GTP and GTPγS nucleotides were purchased from Sigma Aldrich (respective catalog references G8877 and G8634). • the 384-well, low volume, white plates with a white background were purchased from Greiner Bio One (catalog reference 784075). • the non-hydrolyzable/slowly hydrolyzable GTP analogs labeled with donor fluorophores of lanthanide complex type were synthesized at Cisbio Bioassays. Methods Preparation of the Reagents
Except for other specific mention, all the reagents were diluted in 50 mM Tris HCl pH 7.4, 10 mM MgCl2, 0.1% BSA, 10 mM NaCl, buffer. The membranes were prepared 4× to distribute 1 or 10 μg/well (amount specified in the key of each figure). The GTPγS nucleotide (non-specific signal condition) was prepared 6.67× to obtain a final concentration in the wells of 100 μM. The anti-Gαi antibody DSV36S-d2 used for the detection was prepared 4× to target the final concentration in the wells of 10 nM. […]
(§3) The non-specific signal (background fluorescence noise) was measured with wells containing an excess of GTPγS (10 or 100 μM).
(§4) The plates were incubated at 21° C. for 20 h and then the HTRF signal was measured on the PHERAstar reader (BMG Labtech) with the following configuration: • Module: HTRF (Excitation 337 nm, Emission 665 nm and 620 nm) • Excitation: laser, 40 flashes or lamp, 100 flashes • Reading window: delays: 60 μs-Integration: […] Signal Processing
(§5) From the raw signals at 665 nm and 620 nm, the HTRF Ratio was calculated according to the following formula: HTRF Ratio=[(Signal at 665 nm)/(Signal at 620 nm)]×10 000 Test Format […]

Gαi protein [2] = test: TR-FRET (HTRF) binding test of GTP analog-donor / anti-Gαi antibody DSV36S-d2, CHO-K1 Delta Opioid membranes
Excerpt: as §1, §2
Except for other specific mention, all the reagents were diluted in 50 mM Tris HCl pH 7.4, 10 mM MgCl2, 0.1% BSA, 10 mM NaCl, buffer. The membranes were prepared 4× to distribute 1 or 10 μg/well (amount specified in the key of each figure). The GTPγS nucleotide (non-specific signal condition) was prepared 6.67× to obtain a final concentration in the wells of 100 μM. The anti-Gαi antibody DSV36S-d2 used for the detection was prepared 4× to target the final concentration in the wells of 10 nM. The non-hydrolyzable/slowly hydrolyzable GTP analogs labeled with fluorescent donor probes (lanthanide complexes) were prepared 4× to target the final concentrations in the wells mentioned in the keys of each figure.
• Membranes expressing GPCR and the G protein: 5 μl • GTPγS buffer or nucleotide (for the non-specific signal condition): 3 μl • Non-hydrolyzable/slowly hydrolyzable GTP analog-donor: 5 μl • Anti-Gαi antibody-acceptor (DSV36S-d2): 5 μl • Buffer: 2 μl
as §3, §4
From the raw signals at 665 nm and 620 nm, the HTRF Ratio was calculated according to the following formula: HTRF Ratio=[(Signal at 665 nm)/(Signal at 620 nm)]×10 000 Test Format
FIG. 2 illustrates the test format used to detect the binding of the compounds of formula (I) to the G protein. […] When the two FRET partners (test compound and anti-Gα protein antibody) bind to the same Gα protein, a FRET signal appears (left part of the figure: “Total Signal”) and is distinguished from the non-specific signal (background noise corresponding to the right part of the figure: “Non-Specific Signal”), which comprises a large excess of unlabeled GTPγS (displacement of the fluorescent GTP analog). […]
GTPgN-octyl-C2 was used at a final concentration of 6 nM in the wells. The membranes were incubated in the absence or in the presence of a large excess of GTPγS (100 μM). […]
GTPgN-octyl-C2 was used at a final concentration of 2 or 6 nM in the wells. The membranes were incubated in the absence or in the presence of a large excess of GTPγS (100 μM).

Gαi protein [3] = test: TR-FRET (HTRF) binding test of GTP analog-donor / anti-Gαi antibody DSV36S-d2, CHO-K1 Dopamine D2S membranes; conditions: CHO-K1 membranes expressing Dopamine D2S GPCR and Gαi, 10 μg per well; analog 6 nM; absence vs presence of GTPγS 100 μM
Excerpt: as §1
• the DSV36 antibody was generated by Cisbio Bioassays and is available rom Cisbio Bioassays on request (under the reference DSV36S). The antibody was labeled with the fluorescent probe d2 (red acceptor) compatible for TR-FRET detection. […]
as §3, §4, §5

[4] = CHO-K1 membranes expressing Delta Opioid GPCR and Gαi, 10 μg per well, analog 6 nM, absence vs presence of GTPγS 100 μM

Row | HTRF Ratio total signal/non-specific signal (Gαi protein [1]) | Compound | HTRF Ratio total signal/non-specific signal (Gαi protein [2]; [4]) | further results
1 | 1.4 | Nc1nc2c(ncn2[C@@H]2O[C@H](COP(=O)(O)OP(=O)(O)OP(=O)(O)NCCCCCCCCNc3nc(Cl)nc(Nc4ccc(-c5cc(-c6cccc(CN(CC(=O)O)CC(=O)O)n6)nc(-c6cccc(CN(CC(=O)O)CC(=O)O)n6)c5)cc4)n3)C(O)[C@@H]2O)c(=O)[nH]1 (some centres unmarked) [GTPgN-octyl-C3, GTP-gamma-N-octyl-C3] | – | –
2 | 1.7 | Nc1nc2c(ncn2[C@@H]2O[C@H](COP(=O)(O)OP(=O)(O)OP(=O)(O)Nc3ccc(-c4cc(-c5cccc(CN(CC(=O)O)CC(=O)O)n5)nc(-c5cccc(CN(CC(=O)O)CC(=O)O)n5)c4)cc3)C(O)[C@@H]2O)c(=O)[nH]1 (some centres unmarked) [GTPgN—C3, GTP-gamma-N—C3] | – | –
3 | – | GTP-gamma-N-octyl-C2 [GTPgN-octyl-C2] | 12.4 | signal amplitude (S/N), effect of amount of membrane (Gαi protein [2]; CHO-K1 Delta Opioid membranes increased from 1 to 10 μg per well, FIG. 11A): increase in the signal amplitude (S/N) is observed; amplitude of the signal (S/N), effect of analog concentration (Gαi protein [2]; CHO-K1 Delta Opioid membranes, GTPgN-octyl-C2 increased from 2 to 6 nM, FIG. 11B): increase in the amplitude of the signal (S/N) is observed; HTRF Ratio total signal/non-specific signal (Gαi protein [3]): 3.8
4 | – | GTP-gamma-N-octyl-C11 [GTPgN-octyl-C11] | 7.6 | –
5 | – | GTP-gamma-N-octyl-thiosuccinimidyl-C2 [GTPgN-octyl-thiosuccinimidyl-C2] | – | HTRF Ratio total signal/non-specific signal (Gαi protein [2]; CHO-K1 Delta Opioid membranes 10 μg per well, analog 7.5 nM, buffer 60 mM MgCl2, 150 mM NaCl, presence vs absence of membrane preparation): 2.8
6 | – | GTP-gamma-N—C2 [GTPgN—C2] | 16.6 | –
7 | – | GTP-gamma-O-hexyl-C2 [GTPgO-hexyl-C2] | 7.1 | –

Row | Compound | HTRF Ratio total signal/non-specific signal (Gαi protein [1]) | HTRF Ratio total signal/non-specific signal (Gαi protein [2]; [4]) | further results
8 | GTP-gamma-O-hexyl-C3 [GTPgO-hexyl-C3] | 1.3 | – | –
